US20230011168A1, “Bio-Chips and Production Method Thereof” (China Medical University, priority 2021, published 2023)

Assays:
Format in all cases: cell-based
[1] = system: GR10 lung cancer cells; experiment: Cancer cell survival test of target drugs, GR10
[2] = system: SiHa cervical cancer cells; experiment: Biochip drug efficacy test on SiHa cervical cancer cells; conditions: compared with 5-Fu and Lipodox
Description: (§1) The biochip 10 can be first served as a simulation model of a drug screening for cancer. This embodiment is an example of a drug screening for candidate drugs for cervical cancer taking from a target patient. It is worth mentioning that the biochip 10 provided by the present invention, the simulated vascular channel 12 in the preferred embodiment can be used for simulating an in-vivo environment of cervical cancer or breast cancer which these cancer cells are normally metabolized from the blood vessel in real human body. However, by switching the simulated vascular channel 12 into a gas or air flow channel (simulation of human trachea), it can be used as a simulation for lung cancer as another suitable applications for the present invention.
(§2) In this embodiment, when producing the simulated vascular channel 12, the fluid containing endothelial cells will be fluxed for completely adhering, attaching and even starting to be cultured to the inner surface of the simulated vascular channel 12 at 37° C. for one day. Further, the peristaltic pump is connected to circulate as a biosystem. For a single simulated vascular channel 12, it is preferred to have a perfusion rate as 13 μL/min. […]
(§3) With reference to FIGS. 8A to 8C, in this embodiment, three different cervical cancer cells are used to perform quantitative and qualitative tests of the efficacy of different cancer therapeutic drugs.

[3] = system: breast cancer cells; experiment: Cell viability of breast cancer cells in biochip; conditions: for live cancer cells (cell viability, FIG. 14): after culturing for 3 days, high concentrations
Description: FIG. 14 is a validation test of cell viability of breast cancer cells treating by couples of cancer therapeutic drugs. […] By such, the present invention can be used to determine which cancer treatment drugs are effective for the patient.
FIG. 15 is an immunohistochemistry corresponded to the test result of Taxol drug in FIG. 14.

[4] = system: CCC cervical cancer cells; experiment: Biochip drug efficacy test on CCC cervical cancer cells; conditions: compared with 5-Fu and Lipodox
Description: as §1, §2, §3

[5] = system: Hela cervical cancer cells; experiment: Biochip drug efficacy test on Hela cervical cancer cells
Description: as §1, §2
With reference to FIGS. 8A to 8C, in this embodiment, three different cervical cancer cells are used to perform quantitative and qualitative tests of the efficacy of different cancer therapeutic drugs. […]

[6] = system: lung cancer cells; experiment: Cytotoxicity test on lung cancer cells in biochip, static vs dynamic perfusion
Description: With reference to FIGS. 12A and 12B, cytotoxicity tests with 5-Fu cancer cell therapeutic drug are presented.

C#Cc1cccc(Nc2ncnc3cc(OCCOC)c(OCCOC)cc23)c1 [Erlotinib]
effect on cancer cell survival (FIG. 13B) [1]: drug resistance

CC(=O)O[C@H]1C(=O)[C@@]2(C)[C@H]([C@H](OC(=O)c3ccccc3)[C@]3(O)C[C@H](OC(=O)[C@H](O)[C@@H](NC(=O)c4ccccc4)c4ccccc4)C(C)=C1C3(C)C)[C@]1(OC(C)=O)CO[C@@H]1C[C@@H]2O [Taxol]
cancer cell poisoning effect (bar diagrams, FIG. 8B) [2]: better cancer cell poisoning effect among other two drugs
dead cancer cells (immunohistochemistry, FIG. 15) [3]: more and more dead cancer cells are shown
live cancer cells (cell viability, FIG. 14) [3]: significantly reducing live cancer cells
cancer cell poisoning effect (bar diagrams, FIG. 8C) [4]: better cancer cell poisoning effect among other two drugs
cancer cell killing effect (immunohistochemistry, apoptotic cells) ([5]; 7th day): significant cancer cell killing effect
cancer cell poisoning effect (bar diagrams, FIG. 8A) ([5]; compared with 5-Fu and Lipodox): better cancer cell poisoning effect among other two drugs

Nc1nc2[nH]cc(CCc3ccc(C(=O)N[C@@H](CCC(=O)O)C(=O)O)cc3)c2c(=O)[nH]1 [Pemetrexed]
reaction compared with the other drugs (FIG. 14) ([3]; Taxol, Cisplatin, Gemcitabine vs Pemetrexed): These three drugs show better reaction than Pemetrexed

O=c1[nH]cc(F)c(=O)[nH]1 [5-Fu]
cytotoxicity (FIG. 12A) ([6]; dynamic perfusion compared with static culture): cytotoxicity of dynamic perfusion is more remarkable
dead cancer cells (immunohistochemistry, FIG. 12B) ([6]; high dose, dynamic culture of perfusion): dead cancer cells are increased

Nc1ccn([C@@H]2O[C@H](CO)[C@@H](O)C2(F)F)c(=O)n1 [Gemcitabine]
live cancer cells (cell viability, FIG. 14) [3]: significantly reducing live cancer cells

N.N.[Cl][Pt][Cl] [Cisplatin]
live cancer cells (cell viability, FIG. 14) [3]: significantly reducing live cancer cells

COc1cc2ncnc(Nc3ccc(F)c(Cl)c3)c2cc1OCCCN1CCOCC1 [Gefitinib]
effect on cancer cell survival (FIG. 13B) [1]: drug resistance
